A value given as a limit tells only on which side of the number the result lay.

H1047R PIK3CA enzyme, sequence (P42336 whole entry H1047R): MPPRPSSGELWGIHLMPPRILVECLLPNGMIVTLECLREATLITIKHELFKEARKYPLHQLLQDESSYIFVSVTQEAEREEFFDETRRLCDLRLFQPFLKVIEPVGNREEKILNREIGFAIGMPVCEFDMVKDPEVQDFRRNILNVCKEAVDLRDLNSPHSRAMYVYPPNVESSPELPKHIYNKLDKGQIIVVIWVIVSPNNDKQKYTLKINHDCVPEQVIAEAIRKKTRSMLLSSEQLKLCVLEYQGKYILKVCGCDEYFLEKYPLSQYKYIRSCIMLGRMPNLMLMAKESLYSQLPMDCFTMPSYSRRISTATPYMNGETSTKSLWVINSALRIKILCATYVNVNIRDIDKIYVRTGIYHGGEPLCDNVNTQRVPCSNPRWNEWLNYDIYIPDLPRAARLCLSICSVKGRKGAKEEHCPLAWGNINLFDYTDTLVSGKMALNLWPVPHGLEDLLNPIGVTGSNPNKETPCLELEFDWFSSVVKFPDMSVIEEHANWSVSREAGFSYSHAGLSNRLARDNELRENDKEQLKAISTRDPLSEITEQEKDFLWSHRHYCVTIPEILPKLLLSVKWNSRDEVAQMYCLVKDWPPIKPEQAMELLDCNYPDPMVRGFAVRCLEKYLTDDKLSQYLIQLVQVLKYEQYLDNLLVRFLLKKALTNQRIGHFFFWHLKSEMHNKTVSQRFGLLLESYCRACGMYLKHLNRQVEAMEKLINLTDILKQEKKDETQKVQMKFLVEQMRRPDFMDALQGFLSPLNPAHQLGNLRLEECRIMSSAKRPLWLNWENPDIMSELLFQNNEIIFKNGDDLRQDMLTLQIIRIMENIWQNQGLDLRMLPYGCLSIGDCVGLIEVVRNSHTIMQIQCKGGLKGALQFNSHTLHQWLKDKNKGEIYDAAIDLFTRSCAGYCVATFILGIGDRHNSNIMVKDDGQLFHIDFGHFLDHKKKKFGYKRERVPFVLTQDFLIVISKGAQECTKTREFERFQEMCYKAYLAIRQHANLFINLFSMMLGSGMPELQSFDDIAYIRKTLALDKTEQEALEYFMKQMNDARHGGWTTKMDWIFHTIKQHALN
H1047R PIK3CA enzyme, sequence (P27986 whole entry partner): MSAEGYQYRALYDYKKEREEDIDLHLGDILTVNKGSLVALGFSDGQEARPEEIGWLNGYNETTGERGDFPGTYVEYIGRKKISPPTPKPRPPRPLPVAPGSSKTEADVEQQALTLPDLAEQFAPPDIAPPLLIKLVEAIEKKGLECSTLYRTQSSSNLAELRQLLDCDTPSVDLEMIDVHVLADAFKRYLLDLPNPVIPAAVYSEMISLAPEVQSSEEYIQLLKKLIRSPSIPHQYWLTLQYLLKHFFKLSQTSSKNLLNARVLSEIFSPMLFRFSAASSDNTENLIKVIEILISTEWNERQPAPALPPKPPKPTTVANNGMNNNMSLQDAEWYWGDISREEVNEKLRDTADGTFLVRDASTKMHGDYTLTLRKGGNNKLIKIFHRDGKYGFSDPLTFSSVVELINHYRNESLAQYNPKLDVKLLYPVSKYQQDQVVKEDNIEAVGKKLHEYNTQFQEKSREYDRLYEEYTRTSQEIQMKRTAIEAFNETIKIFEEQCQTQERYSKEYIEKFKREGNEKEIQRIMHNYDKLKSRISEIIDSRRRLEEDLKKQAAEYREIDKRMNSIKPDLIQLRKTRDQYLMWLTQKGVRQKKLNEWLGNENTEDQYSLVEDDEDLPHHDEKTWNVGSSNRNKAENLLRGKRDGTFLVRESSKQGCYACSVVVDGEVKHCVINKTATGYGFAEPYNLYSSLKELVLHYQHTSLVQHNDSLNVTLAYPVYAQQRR

This assay concerns the target H1047R PIK3CA enzyme (Homo sapiens, UniProt P42336, H1047R). Briefly: ADP-Glo Biochemical PIK3CA Kinase Assay. (In ADP-Glo the light output rises with the ADP produced.)
As a reminder, the IC50 is the concentration that gives 50% inhibition. A low value points to higher potency. `CN(C)C(=O)c1cc(-c2ccc3ncnn3c2)cc2c1C(c1cc(F)ccc1Cl)NC2=O` (stereo not shown) [Compound I-1857] displayed a 50% inhibitory concentration (IC50) of 10 to 100 µM.

Consider `N#Cc1cnc2ncc(-c3cc(NC(=O)c4cc(F)cc(C(F)(F)F)c4)c4c(c3)C(=O)N[C@@H]4c3cc(F)ccc3Cl)cn12` [Compound I-1858], for which the 50% inhibitory concentration (IC50) was in the range of 0.5 to 1 µM.

In turn, `N#Cc1cnc2ncc(-c3cc(NC(=O)c4cc(F)cc(C(F)(F)F)c4)c4c(c3)C(=O)N[C@H]4c3cc(F)ccc3Cl)cn12` [Compound I-1859] yielded a half-maximal inhibitory concentration (IC50) of at most 0.1 µM.

In the case of `O=C(Nc1cc(-c2ccc(=O)n(C(F)F)c2)cc2c1[C@@H](c1cc(F)ccc1Cl)NC2=O)c1cc(F)cc(C(F)(F)F)c1` [Compound I-1860], the concentration for half-maximal inhibition (IC50) lay in the range of 1 to 10 µM.

`O=C(Nc1cc(-c2ccc(=O)n(C(F)F)c2)cc2c1[C@H](c1cc(F)ccc1Cl)NC2=O)c1cc(F)cc(C(F)(F)F)c1` [Compound I-1861]: the half-maximal inhibitory concentration (IC50) was at most 0.1 µM.

Take `N#Cc1c(-c2cc(NC(=O)c3cc(F)cc(C(F)(F)F)c3)c3c(c2)C(=O)NC3c2cc(F)ccc2Cl)cnn1C(F)F` (stereo not shown) [Compound I-1862]: the IC50 was at most 0.1 µM.

`O=C(Nc1cc(-c2cnn(C(F)F)c2)cc2c1C(c1cc(F)ccc1Cl)NC2=O)c1cc(F)cc(Cl)c1` (stereo not shown) [Compound I-1863] returned a concentration for half-maximal inhibition (IC50) of at most 0.1 µM.

Compound `O=C(Nc1cc(-c2ccc3nc(C(F)F)cn3c2)cc2c1C(c1cc(F)ccc1Cl)NC2=O)c1cc(F)cc(C(F)(F)F)c1` (stereo not shown) [Compound I-1864] returned an IC50 of at most 0.1 µM.

Take `Cn1nc(C(F)(F)F)cc1-c1cc(NC(=O)c2cc(F)cc(C(F)(F)F)c2)c2c(c1)C(=O)NC2c1cc(F)ccc1Cl` (stereo not shown) [Compound I-1865]: the concentration for half-maximal inhibition (IC50) was at most 0.1 µM.

For the compound `O=C(Nc1cc(-c2ccc3ncc(C(F)F)n3c2)cc2c1C(c1cc(F)ccc1Cl)NC2=O)c1cc(F)cc(C(F)(F)F)c1` (stereo not shown) [Compound I-1866], the concentration for half-maximal inhibition (IC50) was at most 0.1 µM.

`O=C(Nc1cc(-c2cc3ncnn3cc2F)cc2c1[C@H](c1cc(F)ccc1Cl)NC2=O)c1cc(F)cc(C(F)(F)F)c1` [Compound I-1868] displayed an IC50 of at most 0.1 µM.

In turn, `O=C(Nc1cc(-c2ccc3ncc(F)n3c2)cc2c1[C@@H](c1cc(F)ccc1Cl)NC2=O)c1cc(F)cc(C(F)(F)F)c1` [Compound I-1869] showed a half-inhibitory concentration (IC50) of 0.5 to 1 µM.

For `O=C(Nc1cc(-c2ccc3ncc(F)n3c2)cc2c1[C@H](c1cc(F)ccc1Cl)NC2=O)c1cc(F)cc(C(F)(F)F)c1` [Compound I-1870], the IC50 was at most 0.1 µM.

`O=C(Nc1cc(-c2cnn3ncnc3c2)cc2c1[C@@H](c1cc(F)ccc1Cl)NC2=O)c1cc(F)cc(C(F)(F)F)c1` [Compound I-1871] gave a half-maximal inhibitory concentration (IC50) of 0.1 to 0.5 µM.

`O=C(Nc1cc(-c2cnn3ncnc3c2)cc2c1[C@H](c1cc(F)ccc1Cl)NC2=O)c1cc(F)cc(C(F)(F)F)c1` [Compound I-1872] came in with a half-maximal inhibitory concentration (IC50) of at most 0.1 µM.

As to `Cc1cc2ncnn2cc1-c1cc(NC(=O)c2cc(F)cc(C(F)(F)F)c2)c2c(c1)C(=O)N[C@@H]2c1cc(F)ccc1Cl` [Compound I-1873], the IC50 fell in the range of 1 to 10 µM.

`Cc1cc2ncnn2cc1-c1cc(NC(=O)c2cc(F)cc(C(F)(F)F)c2)c2c(c1)C(=O)N[C@H]2c1cc(F)ccc1Cl` [Compound I-1874] registered an IC50 of at most 0.1 µM.

The compound `Cc1c(-c2cc(NC(=O)c3cc(F)cc(C(F)(F)F)c3)c3c(c2)C(=O)N[C@@H]3c2cc(F)ccc2Cl)ccc2ncnn12` [Compound I-1875] came in with an IC50 of 1 to 10 µM.

Consider `Cc1c(-c2cc(NC(=O)c3cc(F)cc(C(F)(F)F)c3)c3c(c2)C(=O)N[C@H]3c2cc(F)ccc2Cl)ccc2ncnn12` [Compound I-1876], for which the IC50 was at most 0.1 µM.

In turn, `O=C(Nc1cc(-c2cn3c(F)cnc3cn2)cc2c1[C@@H](c1cc(F)ccc1Cl)NC2=O)c1cc(F)cc(C(F)(F)F)c1` [Compound I-1877] displayed a half-inhibitory concentration (IC50) of 1 to 10 µM.

As to `O=C(Nc1cc(-c2cn3c(F)cnc3cn2)cc2c1[C@H](c1cc(F)ccc1Cl)NC2=O)c1cc(F)cc(C(F)(F)F)c1` [Compound I-1878], the concentration for half-maximal inhibition (IC50) is at most 0.1 µM.

`Cn1nc(C(F)F)cc1-c1cc(NC(=O)c2cc(F)cc(C(F)(F)F)c2)c2c(c1)C(=O)N[C@@H]2c1cc(F)ccc1Cl` [Compound I-1879] registered a 50% inhibitory concentration (IC50) of 1 to 10 µM.

`N#Cc1cc(-c2cc(NC(=O)c3cc(F)cc(C(F)(F)F)c3)c3c(c2)C(=O)N[C@@H]3c2cc(F)ccc2Cl)cn2ncnc12` [Compound I-1880] came in with an IC50 of 0.5 to 1 µM.

`Cn1nc(C(F)F)cc1-c1cc(NC(=O)c2cc(F)cc(C(F)(F)F)c2)c2c(c1)C(=O)N[C@H]2c1cc(F)ccc1Cl` [Compound I-1881] returned a 50% inhibitory concentration (IC50) of at most 0.1 µM.

As to `N#Cc1cc(-c2cc(NC(=O)c3cc(F)cc(C(F)(F)F)c3)c3c(c2)C(=O)N[C@H]3c2cc(F)ccc2Cl)cn2ncnc12` [Compound I-1882], the IC50 was at most 0.1 µM.

Regarding `N#Cc1cnc2cc(F)c(-c3cc(NC(=O)c4cc(F)cc(C(F)(F)F)c4)c4c(c3)C(=O)N[C@@H]4c3cc(F)ccc3Cl)cn12` [Compound I-1883], the IC50 was in the range of 1 to 10 µM.

On to `N#Cc1cnc2cc(F)c(-c3cc(NC(=O)c4cc(F)cc(C(F)(F)F)c4)c4c(c3)C(=O)N[C@H]4c3cc(F)ccc3Cl)cn12` [Compound I-1884], for which the IC50 is at most 0.1 µM.

The compound `N#CC1(n2cc(-c3cc(NC(=O)c4cc(F)cc(C(F)(F)F)c4)c4c(c3)C(=O)N[C@@H]4c3cc(F)ccc3Cl)cn2)CC1` [Compound I-1885] gave a concentration for half-maximal inhibition (IC50) of 0.5 to 1 µM.

In turn, `N#CC1(n2cc(-c3cc(NC(=O)c4cc(F)cc(C(F)(F)F)c4)c4c(c3)C(=O)N[C@H]4c3cc(F)ccc3Cl)cn2)CC1` [Compound I-1886] yielded an IC50 of at most 0.1 µM.

`N#CCOc1cc(NC(=O)c2cc(F)cc(C(F)(F)F)c2)c2c(c1)C(=O)N[C@@H]2c1cc(F)ccc1Cl` [Compound I-1887] returned an IC50 of 0.5 to 1 µM.

`N#CCOc1cc(NC(=O)c2cc(F)cc(C(F)(F)F)c2)c2c(c1)C(=O)N[C@H]2c1cc(F)ccc1Cl` [Compound I-1888]: the IC50 is at most 0.1 µM.

As to `N#Cc1nn(C(F)F)cc1-c1cc(NC(=O)c2cc(F)cc(C(F)(F)F)c2)c2c(c1)C(=O)N[C@@H]2c1cc(F)ccc1Cl` [Compound I-1889], the half-inhibitory concentration (IC50) lay within 1 to 10 µM.

As to `N#Cc1nn(C(F)F)cc1-c1cc(NC(=O)c2cc(F)cc(C(F)(F)F)c2)c2c(c1)C(=O)N[C@H]2c1cc(F)ccc1Cl` [Compound I-1890], the concentration for half-maximal inhibition (IC50) was at most 0.1 µM.

On to `O=C1NC(c2cc(F)ccc2Cl)c2c(O)cc(-c3ccc4ncnn4c3)cc21` (stereo not shown) [Compound I-1891], for which the IC50 is 1 to 10 µM.

As for `CSc1cc(-c2ccc3ncnn3c2)cc2c1C(c1cc(F)ccc1Cl)NC2=O` (stereo not shown) [Compound I-1892], the IC50 lay in the range of 10 to 100 µM.

Take `O=C1NC(c2cc(F)ccc2Cl)c2c(Nc3c[nH]c4ccccc34)cc(Br)cc21` (stereo not shown) [Compound I-1896]: the IC50 was 10 to 100 µM.

`O=C(Nc1ccccc1)c1cc(-c2ccc3ncnn3c2)cc2c1C(c1cc(F)ccc1Cl)NC2=O` (stereo not shown) [Compound I-1897] gave an IC50 of 10 to 100 µM.

Regarding `CS(=O)(=O)Nc1cc(-c2ccc3ncnn3c2)cc2c1C(c1cc(F)ccc1Cl)NC2=O` (stereo not shown) [Compound I-1898], the IC50 fell in the range of 1 to 10 µM.

`N#CC1(C(=O)Nc2cc(-c3ccc4ncnn4c3)cc3c2C(c2cc(F)ccc2Cl)NC3=O)CCCC1` (stereo not shown) [Compound I-1899] registered an IC50 of 10 to 100 µM.

In turn, `O=C1NC(c2cc(F)ccc2Cl)c2c(NC(=O)C3CNCCO3)cc(-c3ccc4ncnn4c3)cc21` (stereo not shown) [Compound I-1900] returned a half-inhibitory concentration (IC50) of 10 to 100 µM.

`O=C1NC(c2cc(F)ccc2Cl)c2c(NC(=O)N3CCC(C(F)(F)F)C3)cc(-c3ccc4ncnn4c3)cc21` (stereo not shown) [Compound I-1903] yielded an IC50 of 1 to 10 µM.

`O=C1NC(c2cc(F)ccc2Cl)c2c(NC(=O)N3CCC(O)(C(F)(F)F)C3)cc(-c3ccc4ncnn4c3)cc21` (stereo not shown) [Compound I-1904] showed an IC50 of 10 to 100 µM.

Compound `CC(O)c1cc(-c2ccc3ncnn3c2)cc2c1C(c1cc(F)ccc1Cl)NC2=O` (stereo not shown) [Compound I-1907] gave an IC50 of 10 to 100 µM.

`O=C1NC(c2cc(F)ccc2Cl)c2c1cc(-c1ccc3ncnn3c1)cc2N1CCNCC1` (stereo not shown) [Compound I-1908] came in with an IC50 of 10 to 100 µM.

For the compound `CC(=O)N1CC(C2NC(=O)c3cccc(NC(=O)c4cc(F)cc(C(F)(F)F)c4)c32)C1` (stereo not shown) [Compound I-1909], the concentration for half-maximal inhibition (IC50) was 10 to 100 µM.

`O=C1NC(c2cc(F)ccc2Cl)c2c(NC(=O)C3COCCO3)cc(-c3ccc4ncnn4c3)cc21` (stereo not shown) [Compound I-1910] came in with an IC50 of 10 to 100 µM.

In the case of `O=C1NC(c2cc(F)ccc2Cl)c2c1cc(-c1ccc3ncnn3c1)cc2N1CCOCC1` (stereo not shown) [Compound I-1911], the IC50 is 10 to 100 µM.

`O=C(CC1CCC(O)CC1)Nc1cc(-c2ccc3ncnn3c2)cc2c1C(c1cc(F)ccc1Cl)NC2=O` (stereo not shown) [Compound I-1913]: the 50% inhibitory concentration (IC50) was in the range of 10 to 100 µM.

Compound `O=C1NC(c2cc(F)ccc2Cl)c2c(CC(=O)N3CCc4ccccc43)cc(-c3ccc4ncnn4c3)cc21` (stereo not shown) [Compound I-1914] had an IC50 of 10 to 100 µM.

With `CC1(C2NC(=O)c3cccc(NC(=O)c4cc(F)cc(C(F)(F)F)c4)c32)CCCCC1` (stereo not shown) [Compound I-1917], the IC50 lay within 10 to 100 µM.

For the compound `O=C(Nc1cc(-c2cn(C(F)F)cn2)cc2c1[C@@H](c1cc(F)ccc1Cl)NC2=O)c1cc(F)cc(C(F)(F)F)c1` [Compound I-1918], the IC50 was in the range of 1 to 10 µM.

`O=C(Nc1cc(-c2cn(C(F)F)cn2)cc2c1[C@H](c1cc(F)ccc1Cl)NC2=O)c1cc(F)cc(C(F)(F)F)c1` [Compound I-1919]: the IC50 was at most 0.1 µM.

`N#Cc1c(-c2cc(NC(=O)c3cc(F)cc(C(F)(F)F)c3)c3c(c2)C(=O)N[C@@H]3c2cc(F)ccc2Cl)cnn1C(F)F` [Compound I-1920] gave an IC50 of 1 to 10 µM.

`N#Cc1c(-c2cc(NC(=O)c3cc(F)cc(C(F)(F)F)c3)c3c(c2)C(=O)N[C@H]3c2cc(F)ccc2Cl)cnn1C(F)F` [Compound I-1921] returned an IC50 of at most 0.1 µM.

With `N#Cc1cnc2cnc(-c3cc(NC(=O)c4cc(F)cc(C(F)(F)F)c4)c4c(c3)C(=O)N[C@@H]4c3cc(F)ccc3Cl)cn12` [Compound I-1922], the IC50 was 1 to 10 µM.

The compound `N#Cc1cnc2cnc(-c3cc(NC(=O)c4cc(F)cc(C(F)(F)F)c4)c4c(c3)C(=O)N[C@H]4c3cc(F)ccc3Cl)cn12` [Compound I-1923] displayed a half-maximal inhibitory concentration (IC50) of at most 0.1 µM.

The compound `O=C(Nc1cc(-c2ccc3nnc(C(F)F)n3c2)cc2c1[C@@H](c1cc(F)ccc1Cl)NC2=O)c1cc(F)cc(C(F)(F)F)c1` [Compound I-1924] had a 50% inhibitory concentration (IC50) of 1 to 10 µM.

In the case of `O=C(Nc1cc(-c2ccc3nnc(C(F)F)n3c2)cc2c1[C@H](c1cc(F)ccc1Cl)NC2=O)c1cc(F)cc(C(F)(F)F)c1` [Compound I-1925], the IC50 was at most 0.1 µM.

For the origin of these results see patent publication US12581252B2, “Substituted pyrrolo[3,4-b]pyridines as PI3K-α inhibitors” (Relay Therapeutics, Inc., priority 2020, dated 2026).
